Experimental data reported in patent US10821115B2, “Compounds that inhibit Mcl-1 protein” (priority 2017, dated 2020).
Read-outs that look alike come from different tables or passages of the source.

Experiments:
[1] = test system: human multiple myeloma cell line, OPM-2; experiment: Cell viability assay (OPM-2 10 FBS), CellTiter-Glo; format: cell-based
Outline: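 Steps: plate cells at 3000/well in 10% FBS growth medium, add serially diluted compound, incubate 16 h at 37 °C with 5% CO2, add detection reagent and read luminescence after 25 min. A 4-parameter logistic model gives IC50.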

[2] = molecular target: recombinant human Mcl-1 (residues 171-327) / Bim interaction (Homo sapiens (Human), UniProt Q07820); experiment: biochemical; format: binding; conditions: read-out: Mcl-1 HTRF IC50
[3] = read-out: OPM-2 10% FBS IC50 IP, OPM-2 cells, 10% FBS, 16 h incubation
[4] = 0.1 nM Mcl-1(171-327), 0.05 nM biotin-Bim (51-76)
[5] = Homo sapiens, OPM-2, 16 h, read-out: OPM-2 10% FBS IC50 IP, OPM-2 cells, 10% FBS, 16 h, CellTiter-Glo
[6] = TR-FRET, Mcl-1(171-327) / biotin-Bim (51-76)
[7] = Homo sapiens, OPM-2, 16 h, read-out: OPM-2 10% FBS IC50 IP, OPM-2 cells, 10% FBS, 16 h incubation

Sequence of recombinant human Mcl-1 (residues 171-327) / Bim interaction (Q07820 171-327): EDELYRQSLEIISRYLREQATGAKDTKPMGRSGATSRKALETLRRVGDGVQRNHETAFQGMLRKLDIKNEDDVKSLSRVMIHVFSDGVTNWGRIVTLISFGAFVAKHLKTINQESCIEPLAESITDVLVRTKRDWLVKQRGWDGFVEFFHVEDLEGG

Compound | IC50 [2, 4] [nM] | IC50 [1, 5] [nM] | IC50 [2, 6] [nM] | further results
CO[C@@]1(CN2CCN3CCN(C(C)C)C[C@@H]3C2)/C=C/C[C@H](C)[C@@H](C)S(=O)(=O)NC(=O)c2ccc3c(c2)N(C[C@@H]2CC[C@H]21)C[C@@]1(CCCc2cc(Cl)ccc21)CO3 (single isomer, unassigned) [Example 240] | 0.128 | – | – | IC50 [1, 3]: 141 nM
CO[C@@]1(c2cnccn2)/C=C/C[C@H](C)[C@@H](C)S(=O)(=O)NC(=O)c2ccc3c(c2)N(C[C@@H]2CC[C@H]21)C[C@@]1(CCCc2cc(Cl)ccc21)CO3 (single isomer, unassigned) [Example 100379] | – | 71 | 0.06 | –
C[C@@H]1[C@@H](C)CCC[C@]2(CN3CCOC[C@H]3CO2)[C@@H]2CC[C@H]2CN2C[C@@]3(CCCc4cc(Cl)ccc43)COc3ccc(cc32)C(=O)NS1(=O)=O (single isomer, unassigned) [Example 399] | 0.401 | – | – | IC50 [1, 3]: 2100 nM
CO[C@]1(CN2CCN3CCC[C@@H]3C2)/C=C/C[C@H](C)[C@@H](C)S(=O)(=O)NC(=O)c2ccc3c(c2)N(C[C@@H]2CC[C@H]21)C[C@@]1(CCCc2cc(Cl)ccc21)CO3 [Example 83] | 0.223 | – | – | IC50 [1, 3]: 245 nM
C[C@@H]1[C@@H](C)CCC[C@](O)(CC(=O)Nc2ccncn2)[C@@H]2CC[C@H]2CN2C[C@@]3(CCCc4cc(Cl)ccc43)COc3ccc(cc32)C(=O)NS1(=O)=O [Example 100174, 2-((1S,3′R,6′R,7′S,11′S,12′R)-6-chloro-7′-hydroxy-11′,12′-dimethyl-13′,13′-dioxido-15′-oxo-3,4-dihydro-2H-spiro[naphthalene-1,22′-[20]oxa[13]thia[1,14]diazatetracyclo [14.7.2.0~3,6~.0~19,24~]pentacosa[16,18,24]trien]-7′-yl)-N-4-pyrimidinylacetamide] | – | 1910 | 2.02 | –
C[C@@H]1[C@@H](C)CCC[C@@](O)(c2cccnc2)[C@@H]2CC[C@H]2CN2C[C@@]3(CCCc4cc(Cl)ccc43)COc3ccc(cc32)C(=O)NS1(=O)=O [Example 100185, (1S,3′R,6′R,7′S,11′S,12′R)-6-chloro-7′-hydroxy-11′,12′-dimethyl-7′-(3-pyridinyl)-3,4-dihydro-2H,15′H-spiro[naphthalene-1,22′-[20]oxa[13]thia[1,14]diazatetracyclo [14.7.2.0~3,6~.0~19,24~]pentacosa[16,18,24]trien]-15′-one 13′,13′-dioxide] | – | 5130 | – | IC50 [2]: 8.88 nM
CO[C@@]1(CN2CCN(c3cnccn3)CC2)/C=C/C[C@H](C)[C@@H](C)S(=O)(=O)NC(=O)c2ccc3c(c2)N(C[C@@H]2CC[C@H]21)C[C@@]1(CCCc2cc(Cl)ccc21)CO3 [Example 257, (1S,3′R,6′R,7′S,8′E,11′S,12′R)-6-chloro-7′-methoxy-11′,12′-dimethyl-7′-((4-(2-pyrazinyl)-1-piperazinyl)methyl)-3,4-dihydro-2H,15′H-spiro[naphthalene-1,22′-[20]oxa[13]thia[1,14]diazatetracyclo [14.7.2.0~3,6~.0~19,24~]pentacosa[8,16,18,24]tetraen]-15′-one 13′,13′-dioxide] | 0.403 | – | – | IC50 [1, 7]: 981 nM
CCO[C@@]1(CN2CCN(C3COC3)CC2)/C=C/C[C@H](C)[C@@H](C)S(=O)(=O)NC(=O)c2ccc3c(c2)N(C[C@@H]2CC[C@H]21)C[C@@]1(CCCc2cc(Cl)ccc21)CO3 [Example 106, (1S,3′R,6′R,7′S,8′E,11′S,12′R)-6-chloro-7′-ethoxy-11′12′-dimethyl-7′-((4-(3-oxetanyl)-1-piperazinyl)methyl)-3,4-dihydro-2H,15′H-spiro[naphthalene-1,22′-[20]oxa[13]thia[1,14]diazatetracyclo [14.7.2.0~3,6~.0~19,24~]pentacosa[8,16,18,24]tetraen]-15′-one 13′,13′-dioxide] | 0.299 | – | – | IC50 [1, 7]: 308 nM
C[C@@H]1[C@@H](C)CCC[C@@](O)(CC(=O)N2CCOC2=O)[C@@H]2CC[C@H]2CN2C[C@@]3(CCCc4cc(Cl)ccc43)COc3ccc(cc32)C(=O)NS1(=O)=O (stereo in doubt) [Example 100154, (1S,3′R,6′R,7′R,11′S,12′R)-6-chloro-7′-hydroxy-11′,12′-dimethyl-7′-(2-oxo-2-(2-oxo-1,3-oxazolidin-3-yl)ethyl)-3,4-dihydro-2H,15′H-spiro[naphthalene-1,22′-[20]oxa[13]thia[1,14]diazatetracyclo [14.7.2.0~3,6~.0~19,24~]pentacosa[16,18,24]rien]-15′-one 13′,13′-dioxide] | – | – | 1.72 | IC50 ([1]; read-out: OPM-2 10% FBS IC50 IP, OPM-2 cells, 10% FBS, 16 h, CellTiter-Glo): 1070 nM
CO[C@@]1(CC(=O)N(C)C2CCCC2)/C=C/C[C@H](C)[C@@H](C)S(=O)(=O)NC(=O)c2ccc3c(c2)N(C[C@@H]2CC[C@H]21)C[C@@]1(CCCc2cc(Cl)ccc21)CO3 [Example 100405, 2-((1S,3′R,6′R,7′S,8′E,11′S,12′R)-6-chloro-7′-methoxy-11′,12′-dimethyl-13′,13′-dioxido-15′-oxo-3,4-dihydro-2H-spiro[naphthalene-1,22′-[20]oxa[13]thia[1,14]diazatetracyclo [14.7.2.0~3,6~.0~19,24~]pentacosa[8,16,18,24]tetraen]-7′-yl)-N-cyclopentyl-N-methylacetamide] | – | 1120 | 0.545 | –
CC[C@@H]1CCCC[C@@](COC)(OC)[C@@H]2CC[C@H]2CN2C[C@@]3(CCCc4cc(Cl)ccc43)COc3ccc(cc32)C(=O)NS1(=O)=O [Example 100038, (1S,3′R,6′R,7′R,12′R)-6-chloro-12′-ethyl-7′-methoxy-7′-(methoxymethyl)-3,4-dihydro-2H,15′H-spiro[naphthalene-1,22′-[20]oxa[13]thia[1,14]diazatetracyclo [14.7.2.0~3,6~.0~19,24~]pentacosa[16,18,24]trien]-15′-one 13′,13′-dioxide] | – | 2560 | 1.66 | –
CO[C@@]1(CN2CCN3CCN(S(C)(=O)=O)C[C@@H]3C2)/C=C/C[C@H](C)[C@@H](C)S(=O)(=O)NC(=O)c2ccc3c(c2)N(C[C@@H]2CC[C@H]21)C[C@@]1(CCCc2cc(Cl)ccc21)CO3 (single isomer, unassigned) [Example 244] | 1.65 | – | – | IC50 [1, 3]: 638 nM
CO[C@]1(CN2CCN3CCC(F)(F)C[C@@H]3C2)/C=C/C[C@H](C)[C@@H](C)S(=O)(=O)NC(=O)c2ccc3c(c2)N(C[C@@H]2CC[C@H]21)C[C@@]1(CCCc2cc(Cl)ccc21)CO3 (single isomer, unassigned) [Example 298] | 0.279 | – | – | IC50 [1, 3]: 262 nM
C[C@@H]1[C@@H](C)CCC[C@](O)(CC(=O)O)[C@@H]2CC[C@H]2CN2C[C@@]3(CCCc4cc(Cl)ccc43)COc3ccc(cc32)C(=O)NS1(=O)=O [Example 100097, ((1S,3′R,6′R,7′S,11′S,12′R)-6-chloro-7′-hydroxy-11′,12′-dimethyl-13′,13′-dioxido-15′-oxo-3,4-dihydro-2H-spiro[naphthalene-1,22′-[20]oxa[13]thia[1,14]diazatetracyclo [14.7.2.0~3,6~.0~19,24~]pentacosa[16,18,24]trien]-7′-yl)acetic acid] | – | 5230 | 0.081 | –
C[C@@H]1[C@@H](C)C/C=C/[C@]2(CN(Cc3ccncc3)CCO2)[C@@H]2CC[C@H]2CN2C[C@@]3(CCCc4cc(Cl)ccc43)COc3ccc(cc32)C(=O)NS1(=O)=O [Example 136, (1S,3′R,6′R,7′R,8′E,11′S,12′R)-6-chloro-11′,12′-dimethyl-4″- (4-pyridinylmethyl)-3,4-dihydro-2H,15′H-dispiro[naphthalene-1,22′-[20]oxa[13]thia[1,14]diazatetracyclo [14.7.2.0~3,6~.0~19,24~]pentacosa[8,16,18,24]tetraene-7′,2″-[1,4]oxazinan]-15′-one 13′,13′-dioxide] | 4.7 | – | – | IC50 [1, 7]: 1020 nM
C[C@@H]1[C@@H](C)C/C=C/[C@@](CN2CCN3CCOC[C@@H]3C2)(OCC(F)(F)F)[C@@H]2CC[C@H]2CN2C[C@@]3(CCCc4cc(Cl)ccc43)COc3ccc(cc32)C(=O)NS1(=O)=O [Example 50, (1S,3′R,6′R,7′R,8′E,11′S,12′R)-6-chloro-7′-((9aS)-hexahydropyrazino[2,1-c][1,4]oxazin-8(1H)-ylmethyl)-11′,12′-dimethyl-7′-(2,2,2-trifluoroethoxy)-3,4-dihydro-2H,15′H-spiro[naphthalene-1,22′-[20]oxa[13]thia[1,14]diazatetracyclo [14.7.2.0~3,6~.0~19,24~]pentacosa[8,16,18,24]tetraen]-15′-one 13′,13′-dioxide] | 0.736 | – | – | IC50 [1, 7]: 1530 nM
CO[C@@]1(CN2CCN(C3CS(=O)(=O)C3)CC2)/C=C/C[C@H](C)[C@@H](C)S(=O)(=O)NC(=O)c2ccc3c(c2)N(C[C@@H]2CC[C@H]21)C[C@@]1(CCCc2cc(Cl)ccc21)CO3 [Example 339, (1S,3′R,6′R,7′S,8′E,11′S,12′R)-6-chloro-7′-((4-(1,1-dioxido-3-thietanyl)-1-piperazinyl)methyl)-7′-methoxy-11′,12′-dimethyl-3,4-dihydro-2H,15′H-spiro[naphthalene-1,22′-[20]oxa[13]thia[1,14]diazatetracyclo [14.7.2.0~3,6~.0~19,24~]pentacosa[8,16,18,24]tetraen]-15′-one 13′,13′-dioxide] | 0.117 | – | – | IC50 [1, 7]: 153 nM
